The text below walks through data of patent US8129355B2, “Ketone ligands for modulating the expression of exogenous genes via an ecdysone receptor complex” (priority 2002, dated 2012).

For data set [1], the target named is T1, Bombyx mori EcR (VP16 fusion, switch construct CVBE) with 6XEcRE LacZ reporter (Bombyx mori, UniProt P49881).
T1 construct: expressed in transfected cells; host or cells: Human 293 kidney (HEK-293) cells, retrovirally infected, clone Z3
T1 sequence (P49881 86-606 limits assumed): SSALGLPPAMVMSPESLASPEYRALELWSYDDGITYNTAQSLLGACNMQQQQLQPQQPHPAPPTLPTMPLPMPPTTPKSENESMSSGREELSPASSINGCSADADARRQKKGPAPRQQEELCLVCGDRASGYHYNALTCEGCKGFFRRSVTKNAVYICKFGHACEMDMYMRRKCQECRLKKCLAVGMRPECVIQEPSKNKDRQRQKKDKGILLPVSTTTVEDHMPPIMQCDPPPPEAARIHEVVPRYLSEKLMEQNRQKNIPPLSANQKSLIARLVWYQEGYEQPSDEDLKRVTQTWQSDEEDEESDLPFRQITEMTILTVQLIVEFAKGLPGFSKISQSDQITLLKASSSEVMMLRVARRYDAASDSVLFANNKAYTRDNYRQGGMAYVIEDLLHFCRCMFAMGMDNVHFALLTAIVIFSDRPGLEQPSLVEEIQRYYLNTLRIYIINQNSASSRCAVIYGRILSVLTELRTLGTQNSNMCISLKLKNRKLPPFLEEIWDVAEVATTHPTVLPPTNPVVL
T1 sequence (P19793 1-462 partner): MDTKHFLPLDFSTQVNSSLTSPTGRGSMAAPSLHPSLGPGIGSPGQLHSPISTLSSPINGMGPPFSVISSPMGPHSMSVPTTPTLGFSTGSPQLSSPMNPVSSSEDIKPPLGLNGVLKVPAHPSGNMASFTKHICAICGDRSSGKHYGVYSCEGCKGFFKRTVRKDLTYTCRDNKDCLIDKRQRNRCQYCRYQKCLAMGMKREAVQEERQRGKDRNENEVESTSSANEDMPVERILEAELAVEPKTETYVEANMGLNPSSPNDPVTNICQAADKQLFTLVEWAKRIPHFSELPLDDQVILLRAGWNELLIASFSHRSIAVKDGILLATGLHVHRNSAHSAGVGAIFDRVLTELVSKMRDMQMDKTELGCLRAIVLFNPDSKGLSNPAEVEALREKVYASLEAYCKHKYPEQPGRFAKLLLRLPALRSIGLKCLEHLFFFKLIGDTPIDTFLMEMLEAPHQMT
Put plainly: Z3 assay: β-galactosidase (LacZ) reporter gene fold induction in stably transformed human 293 kidney cells (clone Z3). The conditions noted are these: for CC50: average, dose response, three-parameter logistic model, read-out: Z3 LC50; for Z3 Rel Max FI: maximum fold induction at any concentration relative to that of GS-E ligand. Type of data set: cell-based. An outline of the steps:
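β-Galactosidase read 48 h after dosing by bioluminescent assay; ligand added at 33 μM with DMSO held at 0.03%. The cells are stable 293 clone Z3, expressing a CMV-driven VP16 fusion of Bombyx mori EcR residues 26-546 plus six EcRE copies upstream of lacZ.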
(In general: Reporter assays use an easily measured gene product as a stand-in for the process of interest.)

Data set [2] deals with T2, GAL4 DBD (1-147)-CfEcR(DEF)/VP16AD-βRXREF-LmUSPEF (Choristoneura fumiferana, UniProt O77240).
T2 sequence (O77240 191-513): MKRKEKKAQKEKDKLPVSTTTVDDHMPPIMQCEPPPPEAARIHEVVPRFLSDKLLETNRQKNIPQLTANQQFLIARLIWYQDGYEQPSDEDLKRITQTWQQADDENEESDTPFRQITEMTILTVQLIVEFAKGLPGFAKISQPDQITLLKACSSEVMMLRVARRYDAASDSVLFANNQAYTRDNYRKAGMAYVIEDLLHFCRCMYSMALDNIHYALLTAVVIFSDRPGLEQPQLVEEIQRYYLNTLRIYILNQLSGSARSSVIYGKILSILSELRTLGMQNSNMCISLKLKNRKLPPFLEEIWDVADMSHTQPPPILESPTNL
T2 sequence (P28702 296-455 partner limits assumed): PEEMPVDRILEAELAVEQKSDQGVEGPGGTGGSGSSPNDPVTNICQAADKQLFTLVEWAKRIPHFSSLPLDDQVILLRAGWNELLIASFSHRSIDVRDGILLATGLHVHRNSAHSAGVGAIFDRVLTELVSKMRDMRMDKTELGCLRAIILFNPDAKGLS
Nature of the data set: 27-63 assay: luciferase reporter gene expression in stable CHO cell clone 27-63. The conditions noted are these: for Fold Induction Average, 27-63 Assay (33 μM): single dose 33 μM, RLU ligand treated / RLU DMSO treated cells; for 27-63 Rel Max FI: maximum fold induction at any concentration relative to that of GS-E ligand; for CC50: read-out: 27-63 LC50, average, dose response, three-parameter logistic model. An excerpt: GAL4 DBD (1-147)-CfEcR(DEF)/VP16AD-βRXREF-LmUSPEF: The wild-type D, E, and F domains from spruce budworm Choristoneura fumiferana EcR (“CfEcR-DEF”; SEQ ID NO: 1) were fused to a GAL4 DNA binding domain (“Gal4 DBD1-147”; nucleotides 31 to 471 of SEQ ID NO: 2) and placed under the control of a phosphoglycerate kinase promoter (“PGK”; SEQ ID NO: 3). Helices 1 through 8 of the EF domains from Homo sapiens RXRβ and helices 9 through 12 of the EF domains of Locusta migratoria Ultraspiracle Protein (“HsRXRβ-EF-LmUSP-EF”; SEQ ID NO: 4) were fused to the transactivation domain from VP16 (“VP16AD”; SEQ ID NO: 5) and placed under the control of an elongation factor-1α promoter (“EF-1α”; SEQ ID NO: 6). Five consensus GAL4 response element binding sites (“5XGAL4RE”; comprising 5 copies of a GAL4RE comprising SEQ ID NO: 7) were fused to a synthetic TATA minimal promoter (SEQ ID NO: 8) and placed upstream of the luciferase reporter gene (SEQ ID NO: 9).
CHO cells were transiently transfected with transcription cassettes for GAL4 DBD (1-147) CfEcR(DEF) and for VP16AD βRXREF-LmUSPEF controlled by ubiquitously active cellular promoters (PGK and EF-1α, respectively) on a single plasmid. Stably transfected cells were selected by Zeocin resistance. Individually isolated CHO cell clones were transiently transfected with a GAL4 RE-luciferase reporter (pFR Luc). 27-63 clone was selected using Hygromycin.
Cells were trypsinized and diluted to a concentration of 2.5×10^4 cells mL. 100 μL of cell suspension was placed in each well of a 96 well plate and incubated at 37° C. under 5% CO2 for 24 h. Ligand stock solutions were prepared in DMSO and diluted 300 fold for all treatments. Dose response testing consisted of 8 concentrations ranging from 33 μM to 0.01 μM.
Luciferase reporter gene expression was measured 48 h after cell treatment using Bright-Glo™ Luciferase Assay System from Promega (E2650). Luminescence was detected at room temperature using a Dynex MLX microtiter plate luminometer.
Fold inductions were calculated from single dose testing by dividing relative light units (RLU) in ligand treated cells by RLU in DMSO treated cells. BC50s were calculated from dose response data using a three-parameter logistic model.

Setting [3] is: single dose 33 μM, ligand treated / DMSO treated cells.

With `COc1cccc(C(=O)NC2(C(=O)c3cc(C)cc(C)c3)CCCN(C(=O)OC(C)(C)C)C2)c1C` (racemic) [Example 146], in data set [1] (setting [3]), the “Fold Induction Average, Z3 Assay (33 μM)” value worked out at 1. Also, the “Fold Induction Average, 27-63 Assay (33 μM)” value in data set [2] was 1.

Take `COc1cccc(C(=O)NC2(C(=O)c3cc(C)cc(C)c3)CCCNC2)c1C` (racemic) [Example 148]: in data set [1] (setting [3]), the “Fold Induction Average, Z3 Assay (33 μM)” value was found to be 7. The “Fold Induction Average, 27-63 Assay (33 μM)” value in data set [2] is reported as 2.

Turning to `COc1cccc(C(=O)NC2(C(=O)c3cc(C)cc(C)c3)CCCN(C(C)=O)C2)c1C` (racemic) [Example 153], the “Fold Induction Average, Z3 Assay (33 μM)” value in data set [1] (setting [3]) is given as 3. Further, the “Fold Induction Average, 27-63 Assay (33 μM)” value in data set [2] was 1.

As to `COc1cccc(C(=O)NC2(C(=O)c3cc(C)cc(C)c3)CCCN(S(C)(=O)=O)C2)c1C` (racemic) [Example 155], the “Fold Induction Average, Z3 Assay (33 μM)” value in data set [1] (setting [3]) is listed as 4. Besides, the “Fold Induction Average, 27-63 Assay (33 μM)” value in data set [2] stood at 2.

`CCNC(=O)N1CCCC(NC(=O)c2cccc(OC)c2C)(C(=O)c2cc(C)cc(C)c2)C1` (racemic) [Example 160]: in data set [1] (setting [3]), the “Fold Induction Average, Z3 Assay (33 μM)” value amounted to 1. In addition, in data set [2], the “Fold Induction Average, 27-63 Assay (33 μM)” value was 1.

Regarding `CCc1c(C(=O)NC2(C(=O)c3cc(C)cc(C)c3)CCCCC2)ccc2c1OCCO2` [Example 80], in data set [1], the CC50 is 0.74 µM and the “Z3 Rel Max FI” value was determined as 0.89. In data set [2], the “27-63 Rel Max FI” value worked out at 0.91 and the CC50 turned out to be 0.39 µM.

With `Cc1cc(C)cc(C(=O)C2(NC(=O)c3ccc4c(c3C)OCO4)CCCCC2)c1` [Example 81], in data set [1], the CC50 was found to be 3.68 µM and the “Z3 Rel Max FI” value came to 0.81. In data set [2], the “27-63 Rel Max FI” value is on record as 0.91 and the CC50 turned out to be 3.22 µM.

With `Cc1cc(C)cc(C(=O)C2(NC(=O)c3ccc4c(c3)OCCO4)CCCCC2)c1` [Example 82], in data set [1], the CC50 was found to be 1.99 µM and the “Z3 Rel Max FI” value is on record as 0.79. Also, in data set [2], the “27-63 Rel Max FI” value is on record as 0.84 and the CC50 worked out at 1.78 µM.

For the compound `Cc1cc(C)cc(C(=O)C2(NC(=O)c3ccc4c(c3)COCO4)CCCCC2)c1` [Example 83], in data set [1], the CC50 is 6.15 µM and the “Z3 Rel Max FI” value worked out at 0.41. Moreover, in data set [2], the “27-63 Rel Max FI” value was found to be 0.70 and the CC50 came to 7.06 µM.

As to `CCc1c(C(=O)NC2(C(=O)c3cc(C)cc(C)c3)CCCC2)ccc2c1OCCO2` [Example 84], in data set [1], the CC50 stood at 1.59 µM and the “Z3 Rel Max FI” value was 0.91. Further, in data set [2], the “27-63 Rel Max FI” value is reported as 0.82 and the CC50 was determined as 1.02 µM.

With `Cc1cc(C)cc(C(=O)C2(NC(=O)c3ccc4c(c3C)OCO4)CCCC2)c1` [Example 85], in data set [1], the CC50 turned out to be 4.76 µM and the “Z3 Rel Max FI” value was 0.67. Also, in data set [2], the “27-63 Rel Max FI” value is listed as 0.94 and the CC50 turned out to be 3.86 µM.

For `Cc1cc(C)cc(C(=O)C2(NC(=O)c3ccc4c(c3)OCCO4)CCCC2)c1` [Example 86], in data set [1], the CC50 was 5.49 µM and the “Z3 Rel Max FI” value is recorded as 0.61. Further, in data set [2], the “27-63 Rel Max FI” value came out at 0.80 and the CC50 was 4.88 µM.

Regarding `Cc1cc(C)cc(C(=O)C2(NC(=O)c3ccc4c(c3)COCO4)CCCC2)c1` [Example 87], in data set [1], the CC50 was 9.46 µM and the “Z3 Rel Max FI” value was 0.17. Further, in data set [2], the “27-63 Rel Max FI” value is 0.53 and the CC50 turned out to be 18.7 µM.

On to `Cc1ccccc1C(=O)NC1(C(=O)c2ccccc2)CCCC1` [Example 140], for which, in data set [1], the CC50 was greater than 33 µM and the “Z3 Rel Max FI” value was 0.00. Moreover, in data set [2], the “27-63 Rel Max FI” value is recorded as 0.00 and the CC50 was greater than 33 µM.

For the compound `O=C(NC1(C(=O)c2ccccc2)CCCC1)c1ccc2c(c1)OCO2` [Example 142], in data set [1], the CC50 is greater than 33 µM and the “Z3 Rel Max FI” value was determined as 0.00. In data set [2], the “27-63 Rel Max FI” value stood at 0.00 and the CC50 is greater than 33 µM.

Regarding `COc1cccc(C(=O)NC2(C(=O)c3cc(C)cc(C)c3)CCNCC2)c1C` [Example 147], the fold induction at 33 µM in data set [1] (single dose 33 μM, ligand treated / DMSO treated cells, read-out: Fold Induction Average, Z3 Assay (33 μM)) was 1; in data set [2] (CHO, read-out: Fold Induction Average, 27-63 Assay (33 μM)), 1.
